Reference: patent US9173898B2, “Methods of treating giardiasis” (THE UNITED STATES OF AMERICA, as represented by the …, priority 2010, dated 2015)
Values after ≈ are worked out from the molar mass of the structure shown. Structures can show the parent of a compound that is named as a salt. Where two headings read alike, the source gives them in different places.

Tests used:
[1] = tested on: Giardia WB; assay: Giardia viability (ATP content) assay in 1536-well format; assay type: cell-based, Giardia lamblia; conditions: for Emax: 48 h, read-out: Giardia WB Efficacy; for Emax / Giardia WB Efficacy: percent reduction in ATP levels compared with 38.3 mM Mnz at maximal compound concentration; for IC50: concentration at which 50% of DMSO control ATP levels are detected, 48 hours, 1536-well
Protocol: (§1) For the viability assay in 1536-well format, 2 μL media was dispensed per well into 1536-well white solid-bottom plates using a Multidrop Combi dispenser (Thermo Scientific). Subsequently, 23 nL/well compound solutions or DMSO controls were dispensed to the assay plates containing media via a pintool workstation (Kalypsys, San Diego). Trophozoites were chilled on ice to detach from glass tubes, and unless otherwise noted, were diluted to 250,000 trophozoites/mL with ice cold media. The trophozoite suspension was kept on ice and dispensed as 4 μL/well with the Multidrop Combi dispenser. Attachment of trophozoites to dispensing apparatus was avoided with continuous dispensing and icing of the trophozoite suspension. The plates were covered with plastic low-evaporation lids, individually sealed in Type A Bio-Bags and incubated at 37° C. for 48 hours. Following incubation, 4 μL/well of ATPLite reagent was dispensed with the Multidrop Combi dispenser. The assay plates were briefly centrifuged at 1000 RPM and luminescence signal was detected on a ViewLux plate reader (PerkinElmer) after 20 min incubation at room temperature. Signal-to-basal (S/B) ratio, Z′ factor and coefficient of variation (CV) were calculated from 32 wells with 0.38% DMSO (total signal) and 32 well with 38.3 μM Mnz (basal signal).
Assay miniaturization in 1,536-well plate format was undertaken to increase throughput and facilitate screening of large compound libraries. The volume of trophozoites suspension was reduced to 6 μL/well and the ATP detection reagent was reduced to 4 μL/well in the 1536-well assay plates. […] The 100 trophozoites/well density was selected for further experiments to reduce the preparation work of Giardia cultures. Following these conditions, a DMSO test plate was used to assess the statistical parameters of the assay in the 1,536-well plate format.
Using the above established conditions in 1536-well format, each compound of the invention was tested at 5 concentration points, ranging from 61 nM-38.3 μM in a 1:5 dilution ratio (Inglese, J., D. S. Auld, A. Jadhav, R. L. Johnson, A. Simeonov, A. Yasgar, W. Zheng, and C. P. Austin. 2006. Quantitative high-throughput screening: a titration-based approach that efficiently identifies biological activities in large chemical libraries. Proc Natl Acad Sci USA 103:11473-8).

[2] = tested on: CHO cells; assay: CHO cell cytotoxicity assay in 1536-well format (ATP content counter-screen); assay type: cell-based, Chinese hamster; conditions: for Emax: Cricetulus griseus, CHO, 48 h, percent reduction in ATP levels compared with 38.3 µM camptothecin at maximal compound concentration, read-out: CHO Efficacy; for CHO Efficacy: percent reduction in ATP levels compared with 38.3 mM camptothecin at maximal compound concentration
[3] = tested on: Giardia lamblia GS isolate; assay: Minimum Lethal Concentration (MLC) determination; assay type: cell-based; conditions: 3 days with compound, then 3 days regrowth without compound, tube without any live organisms
Protocol: Giardia lamblia GS isolate was used throughout the Minimal Lethal Concentration (MLC) experiments. Organisms were grown and maintained in TYI-S-33 medium supplemented with bile and antibiotics (Keister, 1983). Cidal activity was determined in 96-well culture plates (Corning Incorporated) followed by Giardia trophozoites regrowth in 8 ml tubes (Fisher Scientific). Dry compounds were dissolved in DMSO (Sigma) at stock concentration of 10 mM and then added to the growth media to ensure final DMSO concentration of no more than 0.5%. 100 μl of the compound solutions were placed in the wells by serial dilutions. 10 μl of Giardia trophozoites containing 10000 organisms were then added. Serial dilutions of metronidazole served as the positive control and the DMSO-containing medium served as the negative control. Plates were incubated under anaerobic conditions in sealed bags (Becton Dickinson and Company) at 37° C. for 3 days and surveyed visually under microscope to check survival, mobility and attachment of trophozoites. The plate was chilled on ice for 30 min and the entire contents of 4 wells in the growth/death transition were transferred into the 8 ml tubes containing growth media only (without the compound). After 3 days of incubation at 37° C., tubes were checked under microscope for any surviving trophozoites. MLC was attributed to the tube without any live organisms. See, e.g., Keister, D. B. 1983. Axenic culture of Giardia lamblia in TYI-S-33 medium supplemented with bile. Trans. Soc. Trop. Med. Hyg. 77:487-488.

[4] = tested on: CHO cells; assay: CHO cell cytotoxicity assay in 1536-well format (ATP content counter-screen); assay type: cell-based, Chinese hamster; conditions: concentration at which 50% of DMSO control ATP levels are detected, 48 hours
Protocol: For the viability assay in 1536-well format, 2 μL media was dispensed per well into 1536-well white solid-bottom plates using Multidrop Combi dispenser. Subsequently, 23 nL/well compound solutions or DMSO controls were dispensed to the assay plates via a pintool workstation. The Chinese hamster ovary (CHO) cells were grown in T225 flasks to 70% confluence under a standard cell culture condition (ATCC), detached with 0.25% Trypsin/EDTA, and seeded at 250 cells/well in 4 μL media (Dulbecco's Modified Eagle Medium, 10% fetal bovine serum, 1× penicillin/streptomycin). The plates were incubated at 37° C. with 5% CO2 and 95% humidity for 48 hours. Subsequently, ATP content was measured following the addition of 4 μL/well of ATPLite reagent and a 20 min incubation on a ViewLux plate reader.
Data from the CHO cell counter-screen underwent the same initial analysis, with the exception that raw luminescence counts were normalized relative to DMSO only wells (0% activity) and 38.3 μM camptothecin treated wells (100% activity).
CHO cells, commonly used in high throughput compound screening, were selected to determine the cytotoxicity of the compounds towards a mammalian cell line.

[5] = tested on: G. lamblia GS isolate; assay: ATP content assay against G. lamblia GS isolate; assay type: cell-based, Giardia lamblia; conditions: Table 2, screen, read-out: Giardia GS IC50
Protocol: as §1
As a further confirmatory step, some compounds that were commercially available were purchased as powder samples and tested against the G. lamblia GS isolate using both the ATP content and enumeration assays (Table 3).

Row | Molecule | Emax ([1]; Giardia) | IC50 ([1]; Giardia) | Emax [2] | MBC ([3]; Giardia duodenalis, 72 h) | IC50 ([4]; Cricetulus griseus, CHO) | IC50 [1] | Giardia WB Efficacy [1] | CHO Efficacy [2] | IC50 [4] | IC50 ([5]; Giardia duodenalis) | MBC [3] | IC50 [5]
1 | C=CCNC1=C2C[C@@H](C)C[C@H](OC)[C@H](O)[C@@H](C)/C=C(\C)[C@H](OC(N)=O)[C@@H](OC)/C=C\C=C(/C)C(=O)NC(=CC1=O)C2=O [17-Allylamino geldanamycin] | 95.6% | 81.9 nM | 86.9% | 13.9 µM (≈ 8.14 µg/mL) | 520 nM |  |  |  |  |  |  | 
2 | N[C@H](C(=O)O)[C@@H]1CC(Cl)=NO1 [Acivicin] | 85.9% | 170 nM | 52.5% |  | 27400 nM |  |  |  |  |  |  | 
3 | CC(C)C[C@H](NC(=O)[C@H](Cc1ccccc1)NC(=O)c1cnccn1)B(O)O [Bortezomib (S,S), Bortezomib] | 94.4% | 110 nM | 48.2% |  | 20 nM |  |  |  |  |  |  | 
4 | NC(=O)c1cc(N2CC2)c([N+](=O)[O-])cc1[N+](=O)[O-] [CB 1954] |  |  |  |  |  | 120 nM | 96.4% | −16.9% | > 100000 nM |  |  | 
5 | COC(COC(N)=O)C1=C(N2CC2)C(=O)C(C)=C(N2CC2)C1=O (stereo not drawn) [Carboquone] | 97.4% | 183 nM | 98.4% | 1.54 µM (≈ 0.495 µg/mL) | 580 nM |  |  |  |  |  |  | 
6 | COC(=O)[C@H]1[C@H]2C[C@@H]3c4[nH]c5ccccc5c4CCN3C[C@H]2C[C@@H](OC(=O)c2cc(OC)c(OC)c(OC)c2)[C@@H]1OC [Deserpidine] | 94.5% | 1630 nM | 13% | 1.54 µM (≈ 0.891 µg/mL) | 280 nM |  |  |  |  | 283 nM |  | 
7 | O=[N+]([O-])c1ccc(OC2OC(CO)C(O)C(O)C2F)c([N+](=O)[O-])c1 (stereo not drawn) [Dinitroph-dfgp] | 44.2% | 43400 nM | -8% |  | > 100000 nM |  |  |  |  |  |  | 
8 | c1ccc2c(c1)[I+]c1ccccc1-2 [Diphenylene- iodonium chloride, diphenyleneiodonium chloride] | 96% | 259 nM | 95.9% |  | 2060 nM |  |  |  |  |  |  | 
9 | CCN(CC)C(=S)SSC(=S)N(CC)CC [Disulfiram] | 95% | 6500 nM | 53.6% |  | 200 nM |  |  |  |  |  |  | 
10 | COc1cc2c(cc1O)CCN[C@]21CS[C@H]2c3c(OC(C)=O)c(C)c4c(c3[C@H](COC1=O)N1C2[C@H]2c3c(cc(C)c(OC)c3O)C[C@@H]([C@@H]1O)N2C)OCO4 (stereo partly drawn) [Ecteinascidin 743] | 95.9% | 6.51 nM | 97.6% |  | 50 nM |  |  |  |  |  |  | 
11 | CC(=O)[C@]1(O)Cc2c(O)c3c(c(O)c2[C@@H](O[C@H]2C[C@H](N)[C@H](O)[C@H](C)O2)C1)C(=O)c1ccccc1C3=O [Idarubicin HCl] | 94.1% | 3260 nM | 88.7% | > 41.7 µM | 200 nM |  |  |  |  |  |  | 
12 | O=C1c2c(O)ccc(O)c2C(=O)c2c(NCCNCCO)ccc(NCCNCCO)c21 [Mitoxantrone] | 87.5% | 8190 nM | 95.8% | > 41.7 µM | 5800 nM |  |  |  |  |  |  | 
13 | O=[N+]([O-])c1ccc(/C=N/O)o1 [Nifuroxime] |  |  |  |  |  | 460 nM | 97.1% | −50.3% | 41000 nM |  | 1.54 µM (≈ 0.24 µg/mL) | 1000 nM
14 | CC(=O)Nc1ncc([N+](=O)[O-])s1 [Nithiamide] | 94.6% | 580 nM | 25.9% | 4.63 µM (≈ 0.867 µg/mL) | > 100000 nM |  |  |  |  | 317 nM |  | 
15 | COC(=O)Nc1nc2ccc(C(=O)c3cccs3)cc2[nH]1 [Nocodazole] | 86.7% | 183 nM | 54.4% | 0.15 µM (≈ 0.0452 µg/mL) | 370 nM |  |  |  |  |  |  | 
16 | CCCCc1ccc2[nH]c(NC(=O)OC)nc2c1 [Parbendazole] | 90.2% | 312 nM | 60.3% |  | 440 nM |  |  |  |  |  |  | 
17 | Oc1cc(O)cc(/C=C/c2ccc(O)c(O)c2)c1 [Piceatannol] | 81.3% | 3260 nM | -16.6% | 13.9 µM (≈ 3.4 µg/mL) | > 100000 nM |  |  |  |  | 3560 nM |  | 
18 | Oc1ccc(/C=C\c2cc(O)cc(O)c2)cc1 [Resveratrol] | 80.7% | 4940 nM | 22.2% | > 208 µM | 39200 nM |  |  |  |  |  |  | 
19 | CCCC(=O)OCC(OC(=O)CCC)C(OC(=O)CCC)C(Cn1c2nc(=O)[nH]c(=O)c-2nc2cc(C)c(C)cc21)OC(=O)CCC (stereo not drawn) [Riboflavin Butyrate] | 95.7% | 1090 nM | 20.3% | 41.7 µM (≈ 27.4 µg/mL) | > 100000 nM |  |  |  |  | 1130 nM |  | 
20 | O=C(Nc1ncc([N+](=O)[O-])s1)c1cccs1 [Tenonitrozol] | 93.1% | 290 nM | 21.5% | 1.54 µM (≈ 0.393 µg/mL) | > 100000 nM |  |  |  |  |  |  | 
21 | CN(C)C(=S)SSC(=S)N(C)C [Tetramethylthiur am disulfide, tetramethylthiuram disulfide] | 97.6% | 5160 nM | 97.6% |  | 520 nM |  |  |  |  |  |  | 
22 | CCCOc1ccc2nc(NC(=O)OC)sc2c1 [Tioxidazole] | 90.9% | 1460 nM | 34.9% | 1.54 µM (≈ 0.41 µg/mL) | > 100000 nM |  |  |  |  | 634 nM |  | 
23 | CC[C@]1(O)C[C@@H]2C[N@@](CCc3c([nH]c4ccccc34)[C@@](C(=O)OC)(c3cc4c(cc3OC)N(C)[C@H]3[C@@](O)(C(=O)OC)[C@H](OC(C)=O)[C@]5(CC)C=CCN6CC[C@]43[C@@H]65)C2)C1 [Vinblastine sulfate] | 90.1% | 1450 nM | 64.1% |  | 100 nM |  |  |  |  |  |  | 
24 | Amlexanox |  |  |  |  |  | 2590 nM | 92.4% | 89.3% | 3260 nM |  | >41.7 µM | 
25 | Bortezomib [Bortezomib (S,R)] |  |  |  |  |  | 70 nM | 92.8% | 36.2% | 10 nM |  |  | 
